Laboratory results: ChEMBL document CHEMBL6092203, “Discovery of Novel PROTAC-Based HPK1 Degraders with High Potency and Selectivity for Cancer Immunotherapy” (J Med Chem, 2024)

How the values were obtained:
[1] = AUCinfinity in Sprague-Dawley rat at 1 mg/kg, po measured upto 24 hrs by LC-MS analysis; type: ADME, organism-based; conditions: in vivo
[2] = Drug distribution in rat gastrointestinal tract measured after 0.5 to 6 hrs; type: ADME, tissue-based; conditions: in vivo, time 0.5-6 hrs

AUC(0-inf) [1]: 894 ng·h/mL
Drug uptake [2]: Active
Compound: O=C1CCN(c2cc(C(=O)N3CCC(CC4CCN(c5ccc(-c6cnc7[nH]cc(-c8cnn(CC(F)(F)F)c8)c7n6)cn5)CC4)CC3)ccc2Cl)C(=O)N1
